Results published in patent US11053204B2, “Pyrimidinyloxy benzene derivatives as herbicides” (FMC Corporation, priority 2015, dated 2021).

Tests used:
Test in all cases: Test C postemergence, plant response rating
Type in all cases: in vivo
[1] = test system: oilseed rape (Brassica napus); conditions: Brassica napus, post-emergence
Summary of the method: (§1)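 Pre-emergence: seeds sown in loam soil–sand blend or silt loam and sprayed with test chemicals in a non-phytotoxic solvent mixture with surfactant. Post-emergence: plants 2 to 18 cm (1- to 4-leaf stage) in peat-based potting medium, same formulation. Greenhouse 13 to 15 d; visual rating 0 (no effect) to 100 (complete control) versus controls.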

soybean (Glycine max) = conditions: Glycine max, post-emergence
Summary of the method: as §1

[2] = test system: waterhemp (common waterhemp, Amaranthus rudis)
Summary of the method: as §1

[3] = test system: galium (catchweed bedstraw, Galium aparine); conditions: Galium, post-emergence
Summary of the method: as §1

[4] = test system: ragweed (common ragweed, Ambrosia elatior); conditions: Ambrosia artemisiifolia, post-emergence
Summary of the method: as §1

[5] = test system: oat, wild (wild oat Avena fatua); conditions: Avena fatua, post-emergence
Summary of the method: as §1

[6] = test system: nutsedge, yellow (yellow nutsedge, Cyperus esculentus); conditions: Cyperus, post-emergence
Summary of the method: as §1

[7] = test system: wheat (winter wheat, Triticum aestivum); conditions: Triticum aestivum, post-emergence
Summary of the method: as §1

[8] = test system: blackgrass (Alopecurus myosuroides); conditions: Alopecurus myosuroides, post-emergence
Summary of the method: as §1

kochia (Kochia scoparia) = conditions: Bassia scoparia, post-emergence
Summary of the method: as §1

[9] = test system: ryegrass, Italian (Italian ryegrass, Lolium multiflorum); conditions: Lolium multiflorum, post-emergence
Summary of the method: as §1

corn (Zea mays) = conditions: Zea mays, post-emergence
Summary of the method: as §1

[10] = test system: velvetleaf (Abutilon theophrasti); conditions: Abutilon theophrasti, post-emergence
Summary of the method: as §1

[11] = test system: lambsquarters (Chenopodium album); conditions: Chenopodium album, post-emergence
Summary of the method: as §1

[12] = test system: crabgrass, large (large crabgrass, Digitaria sanguinalis); conditions: Digitaria sanguinalis, post-emergence
Summary of the method: as §1

[13] = 62 g ai/ha, scale 0 to 100 (0 no effect, 100 complete control)
[14] = 125 g ai/ha, scale 0 to 100 (0 no effect, 100 complete control)

Compound `O=C(CCC(F)(F)F)c1c(Cl)cccc1Oc1ncc(Cl)cn1` [Compound 107, 1-[2-chloro-6-[(5-chloro-2-pyrimidinyl)oxy]phenyl]-4,4,4-trifluoro-1-butanone] has a plant injury at 16 g/ha ([1]; 16 g ai/ha, scale of 0 to 100) of 65%, a plant injury at 31 g/ha ([1]; 31 g ai/ha, scale 0 to 100) of 80% and a plant injury at 62 g/ha [1, 13] of 95%. For the same compound, the plant injury at 125 g/ha [1, 14] was 98%, the plant injury at 16 g/ha (soybean (Glycine max); 16 g ai/ha, scale of 0 to 100) was 50% and the plant injury at 31 g/ha (soybean (Glycine max); 31 g ai/ha, scale 0 to 100) was 40%. The plant injury at 62 g/ha (soybean (Glycine max); [13]) was 95%, the plant injury at 125 g/ha (soybean (Glycine max); [14]) was 95% and the “Plant response rating, Waterhemp” value ([2]; 16 g ai/ha, scale of 0 to 100) was 95. The “Plant response rating, Waterhemp” value ([2]; 31 g ai/ha, scale 0 to 100) was 98, the “Waterhemp plant response rating” value [2, 14] was 100 and the pest or weed control at 16 g/ha ([3]; 16 g ai/ha, scale of 0 to 100) was 75%. For the same compound, the pest or weed control at 31 g/ha ([3]; 31 g ai/ha, scale 0 to 100) was 80%, the pest or weed control at 62 g/ha [3, 13] was 90% and the pest or weed control at 125 g/ha [3, 14] was 95%. The pest or weed control at 16 g/ha ([4]; 16 g ai/ha, scale of 0 to 100) was 25%, the pest or weed control at 31 g/ha ([4]; 31 g ai/ha, scale 0 to 100) was 35% and the pest or weed control at 62 g/ha [4, 13] was 35%. The pest or weed control at 125 g/ha [4, 14] was 45%, the pest or weed control at 16 g/ha ([5]; 16 g ai/ha, scale of 0 to 100) was 5% and the pest or weed control at 31 g/ha ([5]; 31 g ai/ha, scale 0 to 100) was 40%. The pest or weed control at 62 g/ha [5, 13] was 35%, the pest or weed control at 125 g/ha [5, 14] was 45% and the pest or weed control at 16 g/ha ([6]; 16 g ai/ha, scale of 0 to 100) was 5%. The pest or weed control at 31 g/ha ([6]; 31 g ai/ha, scale 0 to 100) was 5%, the pest or weed control at 62 g/ha [6, 13] was 5% and the pest or weed control at 125 g/ha [6, 14] was 5%. It also gave a plant injury at 16 g/ha ([7]; 16 g ai/ha, scale of 0 to 100) of 5%, a plant injury at 31 g/ha ([7]; 31 g ai/ha, scale 0 to 100) of 5% and a plant injury at 125 g/ha [7, 14] of 30%. The plant injury at 62 g/ha ([7]; rate not given, scale 0 to 100, read-out: Plant response rating, Wheat) was 10%, the pest or weed control at 16 g/ha ([8]; 16 g ai/ha, scale 0 to 100) was 5% and the pest or weed control at 31 g/ha ([8]; 31 g ai/ha, scale 0 to 100) was 20%. For the same compound, the pest or weed control at 62 g/ha [8, 13] was 20%, the pest or weed control at 125 g/ha [8, 14] was 60% and the pest or weed control at 16 g/ha (kochia (Kochia scoparia); 16 g ai/ha, scale of 0 to 100) was 80%. For the same compound, the pest or weed control at 31 g/ha (kochia (Kochia scoparia); 31 g ai/ha, scale 0 to 100) was 85%, the pest or weed control at 62 g/ha (kochia (Kochia scoparia); [13]) was 95% and the pest or weed control at 125 g/ha (kochia (Kochia scoparia); [14]) was 98%. The pest or weed control at 16 g/ha ([9]; 16 g ai/ha, scale of 0 to 100) was 5%, the pest or weed control at 31 g/ha ([9]; 31 g ai/ha, scale 0 to 100) was 35% and the pest or weed control at 62 g/ha [9, 13] was 20%. For the same compound, the pest or weed control at 125 g/ha [9, 14] was 50%, the Corn plant response rating (crop injury, 0 = no effect, 100 = complete kill) at 16 g/ha (corn (Zea mays); 16 g ai/ha, scale of 0 to 100) was 10% and the Corn plant response rating (crop injury, 0 = no effect, 100 = complete kill) at 31 g/ha (corn (Zea mays); 31 g ai/ha, scale 0 to 100) was 20%. It also gave a plant injury at 62 g/ha (corn (Zea mays); [13]) of 20%, a plant injury at 125 g/ha (corn (Zea mays); [14]) of 30% and a pest or weed control at 16 g/ha ([10]; 16 g ai/ha, scale of 0 to 100) of 60%. For the same compound, the pest or weed control at 31 g/ha ([10]; 31 g ai/ha, scale 0 to 100) was 65%, the pest or weed control at 125 g/ha [10, 14] was 90% and the pest or weed control at 62 g/ha ([10]; rate not given, scale 0 to 100, read-out: Plant response rating, Velvetleaf) was 75%. For the same compound, the pest or weed control at 16 g/ha ([11]; 16 g ai/ha, scale of 0 to 100) was 80%, the pest or weed control at 31 g/ha ([11]; 31 g ai/ha, scale 0 to 100) was 85% and the pest or weed control at 62 g/ha [11, 13] was 100%. For the same compound, the pest or weed control at 125 g/ha [11, 14] was 100%, the pest or weed control at 16 g/ha ([12]; 16 g ai/ha, scale of 0 to 100) was 10% and the pest or weed control at 31 g/ha ([12]; 31 g ai/ha, scale 0 to 100) was 10%. For the same compound, the pest or weed control at 62 g/ha [12, 13] was 30% and the pest or weed control at 125 g/ha [12, 14] was 60%.
